Marks after values point to notes of the source that are not given here.
Legend:
CYP1A2, CYP2B1, CYP2E1 = assay: in vitro; conditions: pH 7.4, Regioselectivity BzH:Arom, range, isoforms 1A2, 2B1 and 2E1
CYP2B6, CYP2C9, CYP4B1 = assay: in vitro; conditions: pH 7.4, Regioselectivity BzH:Arom, range, isoforms 2B6, 2C9 and 4B1
multiple CYP isoforms = assay: in vitro; conditions: pH 7.4, Regioselectivity BzH:ODAlk, range, range over the isoforms
CYP2C9 = CYP2C9 (Homo sapiens, UniProt P11712); assay: in vitro
Chain of CYP2C9 (P11712 whole entry): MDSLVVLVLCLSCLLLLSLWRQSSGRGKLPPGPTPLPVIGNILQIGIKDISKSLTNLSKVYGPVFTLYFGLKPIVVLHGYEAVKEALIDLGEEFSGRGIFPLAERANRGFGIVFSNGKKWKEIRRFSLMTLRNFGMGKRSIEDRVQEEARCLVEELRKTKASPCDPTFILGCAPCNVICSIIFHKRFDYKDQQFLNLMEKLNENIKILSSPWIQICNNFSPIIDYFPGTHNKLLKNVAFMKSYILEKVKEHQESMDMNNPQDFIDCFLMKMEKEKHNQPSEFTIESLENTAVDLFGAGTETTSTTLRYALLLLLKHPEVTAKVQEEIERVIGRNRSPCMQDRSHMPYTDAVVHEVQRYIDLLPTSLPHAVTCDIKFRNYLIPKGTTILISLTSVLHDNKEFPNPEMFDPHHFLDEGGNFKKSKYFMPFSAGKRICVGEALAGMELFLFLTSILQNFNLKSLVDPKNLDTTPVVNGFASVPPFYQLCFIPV

CYP2C8 [1] = target: T1, CYP2C8 (Homo sapiens, UniProt P10632); assay: in vitro; conditions: pH 7.4
T1 sequence (P10632 1-490): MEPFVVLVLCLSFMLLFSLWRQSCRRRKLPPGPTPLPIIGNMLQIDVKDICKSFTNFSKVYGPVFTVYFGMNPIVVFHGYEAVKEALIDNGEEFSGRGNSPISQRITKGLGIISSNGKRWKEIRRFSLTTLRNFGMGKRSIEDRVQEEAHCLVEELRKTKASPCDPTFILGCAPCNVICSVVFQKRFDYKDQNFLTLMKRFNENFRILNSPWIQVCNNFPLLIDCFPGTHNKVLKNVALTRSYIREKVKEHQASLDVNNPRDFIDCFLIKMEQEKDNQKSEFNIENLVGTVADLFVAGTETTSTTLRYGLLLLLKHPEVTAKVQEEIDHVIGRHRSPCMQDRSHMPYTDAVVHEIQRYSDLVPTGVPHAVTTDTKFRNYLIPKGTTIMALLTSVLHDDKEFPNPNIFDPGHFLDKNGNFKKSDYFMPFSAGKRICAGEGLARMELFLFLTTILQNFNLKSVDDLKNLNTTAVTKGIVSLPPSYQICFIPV

CYP1A2 [2] = target: T2, CYP1A2 (Homo sapiens, UniProt P05177); conditions: pH 7.4
T2 sequence (P05177 1-516): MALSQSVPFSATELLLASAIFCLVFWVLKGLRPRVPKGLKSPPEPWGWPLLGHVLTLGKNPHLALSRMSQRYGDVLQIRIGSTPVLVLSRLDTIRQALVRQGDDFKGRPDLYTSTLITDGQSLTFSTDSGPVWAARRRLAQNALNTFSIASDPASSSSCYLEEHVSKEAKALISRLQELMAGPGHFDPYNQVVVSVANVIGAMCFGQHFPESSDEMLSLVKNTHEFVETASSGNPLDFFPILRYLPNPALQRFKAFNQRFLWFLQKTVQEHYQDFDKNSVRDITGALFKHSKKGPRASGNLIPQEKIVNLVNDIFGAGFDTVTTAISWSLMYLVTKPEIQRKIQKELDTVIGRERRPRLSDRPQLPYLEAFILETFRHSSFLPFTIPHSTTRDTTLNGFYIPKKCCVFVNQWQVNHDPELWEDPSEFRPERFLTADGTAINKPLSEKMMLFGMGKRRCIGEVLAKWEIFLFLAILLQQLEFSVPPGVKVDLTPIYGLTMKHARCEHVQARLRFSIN

CYP4B1 = CYP4B1 (Oryctolagus cuniculus, UniProt P15128); assay: in vitro
Chain of CYP4B1 (P15128 whole entry): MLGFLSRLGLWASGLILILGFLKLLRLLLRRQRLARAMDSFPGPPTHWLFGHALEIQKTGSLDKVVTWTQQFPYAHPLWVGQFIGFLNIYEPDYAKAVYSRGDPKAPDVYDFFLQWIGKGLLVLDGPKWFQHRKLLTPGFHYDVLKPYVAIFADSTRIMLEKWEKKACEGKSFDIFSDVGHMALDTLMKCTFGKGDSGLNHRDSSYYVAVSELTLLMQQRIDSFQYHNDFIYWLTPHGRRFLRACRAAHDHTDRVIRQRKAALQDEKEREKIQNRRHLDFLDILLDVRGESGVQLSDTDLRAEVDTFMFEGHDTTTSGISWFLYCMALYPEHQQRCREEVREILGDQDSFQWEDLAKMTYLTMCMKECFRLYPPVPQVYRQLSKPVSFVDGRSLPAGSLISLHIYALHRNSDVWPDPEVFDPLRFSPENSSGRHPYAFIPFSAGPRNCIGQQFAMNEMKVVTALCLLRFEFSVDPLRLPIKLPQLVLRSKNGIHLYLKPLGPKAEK

CYP3A4 = CYP3A4 (Homo sapiens, UniProt P08684); assay: Regioselectivity and inter-/intramolecular KIE for 4-methylanisole (Table 15); assay type: in vitro ADME
Chain of CYP3A4 (P08684 whole entry): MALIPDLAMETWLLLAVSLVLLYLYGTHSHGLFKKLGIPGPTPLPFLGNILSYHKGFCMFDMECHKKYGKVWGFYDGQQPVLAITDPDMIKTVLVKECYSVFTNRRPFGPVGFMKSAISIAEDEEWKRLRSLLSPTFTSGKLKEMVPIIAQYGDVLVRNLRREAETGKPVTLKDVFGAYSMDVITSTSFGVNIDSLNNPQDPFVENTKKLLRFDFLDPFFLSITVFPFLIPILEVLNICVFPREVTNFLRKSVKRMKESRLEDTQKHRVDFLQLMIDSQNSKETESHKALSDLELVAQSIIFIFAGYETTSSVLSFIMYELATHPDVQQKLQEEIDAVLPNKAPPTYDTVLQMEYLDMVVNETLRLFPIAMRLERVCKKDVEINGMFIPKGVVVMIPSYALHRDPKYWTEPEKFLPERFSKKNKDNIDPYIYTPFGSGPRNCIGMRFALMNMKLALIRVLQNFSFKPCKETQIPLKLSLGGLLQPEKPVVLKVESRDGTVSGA

CYP1A1 = target: T3, CYP1A1 (Homo sapiens, UniProt P04798)
T3 sequence (P04798 1-512): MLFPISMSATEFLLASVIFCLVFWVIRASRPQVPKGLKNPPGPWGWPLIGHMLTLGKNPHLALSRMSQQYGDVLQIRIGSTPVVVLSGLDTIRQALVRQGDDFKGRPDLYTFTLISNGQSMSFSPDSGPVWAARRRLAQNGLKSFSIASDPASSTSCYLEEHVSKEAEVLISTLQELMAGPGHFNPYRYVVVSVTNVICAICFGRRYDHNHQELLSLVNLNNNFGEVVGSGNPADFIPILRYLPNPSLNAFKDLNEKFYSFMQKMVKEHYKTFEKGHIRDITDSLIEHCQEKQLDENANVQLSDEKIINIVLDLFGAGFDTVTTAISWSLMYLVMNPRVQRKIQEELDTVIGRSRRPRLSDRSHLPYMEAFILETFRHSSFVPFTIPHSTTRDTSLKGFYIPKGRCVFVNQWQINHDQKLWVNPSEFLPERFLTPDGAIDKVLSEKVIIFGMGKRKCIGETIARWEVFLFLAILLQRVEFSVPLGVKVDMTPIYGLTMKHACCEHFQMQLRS

CYP2E1 = CYP2E1 (Homo sapiens, UniProt P05181); assay: Regioselectivity and inter-/intramolecular KIE for 4-methylanisole (Table 15); assay type: in vitro ADME
Chain of CYP2E1 (P05181 whole entry): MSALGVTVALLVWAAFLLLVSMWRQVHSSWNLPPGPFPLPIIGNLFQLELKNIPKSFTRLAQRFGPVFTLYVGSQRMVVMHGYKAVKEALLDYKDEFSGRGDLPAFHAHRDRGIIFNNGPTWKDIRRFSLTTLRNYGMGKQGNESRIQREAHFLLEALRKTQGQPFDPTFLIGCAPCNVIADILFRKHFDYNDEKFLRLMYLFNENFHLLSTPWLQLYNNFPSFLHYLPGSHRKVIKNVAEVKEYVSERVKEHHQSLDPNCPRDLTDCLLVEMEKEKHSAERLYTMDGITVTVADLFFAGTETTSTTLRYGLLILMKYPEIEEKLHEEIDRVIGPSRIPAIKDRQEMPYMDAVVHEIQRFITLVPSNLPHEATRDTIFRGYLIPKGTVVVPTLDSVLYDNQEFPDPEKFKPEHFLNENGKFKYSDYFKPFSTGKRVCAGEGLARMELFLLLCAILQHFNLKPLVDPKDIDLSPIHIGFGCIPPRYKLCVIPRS

CYP2C8 [3] = target: T1, CYP2C8; assay: as above; assay type: in vitro ADME
CYP1A2 [4] = target: T2, CYP1A2; assay: as above; assay type: in vitro ADME
various CYP enzymes = conditions: mean over seven enzymes
[5] = pH 7.4, Regioselectivity BzH:Arom
[6] = pH 7.4, Regioselectivity BzH:ODAlk

Compound: COc1ccccc1C [o-Methylanisole, o-methylanisole]
- selectivity ratio at 20 min, […] (CYP1A2, CYP2B1, CYP2E1): 0.3 to 0.6
- selectivity ratio at 20 min, […] (CYP2B6, CYP2C9, CYP4B1): 1.6 to 22
- selectivity ratio at 20 min, […] (multiple CYP isoforms): 1.2 to 3
- selectivity ratio (CYP2C9; [5]): 1.6
- selectivity ratio (CYP2C9; [6]): 2.5
- selectivity ratio (CYP2C8 [1]): 1
- INTER KIE (combined intermolecular competitive KIE) (CYP1A2 [2]): 9.15
- Intramolecular KIE (kH/kD) (CYP1A2 [2]): 5.7
- Metabolite profile, Phenol (CYP1A2 [2]): 54 Mol-%
- Metabolite profile, o-CR (CYP1A2 [2]): 12 Mol-%
- Metabolite profile, o-MBA (CYP1A2 [2]): 34 Mol-%
- P, calculated primary KIE (CYP1A2 [2]): 6.7
- Ratio of ring hydroxylation para to the methoxy group to ODAlk (CYP1A2 [2]): 4.5
- S, calculated secondary KIE (CYP1A2 [2]): 1.17
- nmol 4M3MPh (CYP1A2 [2]): 9.7* nmol
- nmol TP (CYP1A2 [2]): 18.0 nmol
- nmol o-CR (CYP1A2 [2]): 2.2* nmol
- nmol o-MBA (CYP1A2 [2]): 6.1* nmol
- selectivity ratio (CYP4B1; [5]): 22
- selectivity ratio (CYP4B1; [6]): 0.7

Compound: COc1ccc(C)cc1 [p-Methylanisole, p-methylanisole]
- Intermolecular KIE (CYP3A4; CYP3A4 (Table 15)): 2.76
- Intramolecular KIE (CYP3A4; CYP3A4 (Table 15)): 5.27
- δΔG^† (CYP3A4; CYP3A4, benzylic oxidation vs O-dealkylation): 1.61 kcal/mol
- Intermolecular KIE (CYP1A1; CYP1A1 (Table 15)): 2.17
- Intramolecular KIE (CYP1A1; CYP1A1 (Table 15)): 4.23
- δΔG^† (CYP1A1; CYP1A1, benzylic oxidation vs O-dealkylation): 1.12 kcal/mol
- Intermolecular KIE (CYP2E1; CYP2E1 (Table 15)): 6.53
- Intramolecular KIE (CYP2E1; CYP2E1 (Table 15)): 4.02
- δΔG^† (CYP2E1; CYP2E1, benzylic oxidation vs O-dealkylation): 1.06 kcal/mol
- Intermolecular KIE (CYP2C8 [3]; CYP2C8 (Table 15)): 3.60
- Intramolecular KIE (CYP2C8 [3]; CYP2C8 (Table 15)): 3.60
- δΔG^† (CYP2C8 [3]; CYP2C8, benzylic oxidation vs O-dealkylation): 1.32 kcal/mol
- Intermolecular KIE (CYP1A2 [4]; CYP1A2 (Table 15)): 5.94
- Intramolecular KIE (CYP1A2 [4]; CYP1A2 (Table 15)): 3.79
- δΔG^† (CYP1A2 [4]; CYP1A2, benzylic oxidation vs O-dealkylation): 1.82 kcal/mol
- Benzylic/O-Dealkylation, Mean (various CYP enzymes): 10.60 (5.85)
- Intermolecular KIE, Mean (various CYP enzymes): 4.59
- Intramolecular KIE, Mean (various CYP enzymes): 4.20
- INTER KIE (combined intermolecular competitive KIE) (CYP1A2 [2]): 5.9
- P, calculated primary KIE (CYP1A2 [2]): 5.0
- S, calculated secondary KIE (CYP1A2 [2]): 1.08
